# Experimental data: ChEMBL document CHEMBL3763124, “N-Benzylbenzamides: A Novel Merged Scaffold for Orally Available Dual Soluble Epoxide Hydrolase/Peroxisome Proliferator-Activated Receptor γ Modulators” (J Med Chem, 2016)
# Active and inactive are the calls of the source. The calls are words filed in the database; no cut-off is given here.
# Columns and labels:
# [1] = biological target: T1, Peroxisome proliferator-activated receptor gamma (Homo sapiens) (UniProt P37231); test: Transactivation of human PPARgamma expressed in African green monkey COS7 cells at 10 uM incubated overnight by dual-glo luciferase reporter gene assay; assay type: cell-based; conditions: COS-7
# T1 sequence (whole entry): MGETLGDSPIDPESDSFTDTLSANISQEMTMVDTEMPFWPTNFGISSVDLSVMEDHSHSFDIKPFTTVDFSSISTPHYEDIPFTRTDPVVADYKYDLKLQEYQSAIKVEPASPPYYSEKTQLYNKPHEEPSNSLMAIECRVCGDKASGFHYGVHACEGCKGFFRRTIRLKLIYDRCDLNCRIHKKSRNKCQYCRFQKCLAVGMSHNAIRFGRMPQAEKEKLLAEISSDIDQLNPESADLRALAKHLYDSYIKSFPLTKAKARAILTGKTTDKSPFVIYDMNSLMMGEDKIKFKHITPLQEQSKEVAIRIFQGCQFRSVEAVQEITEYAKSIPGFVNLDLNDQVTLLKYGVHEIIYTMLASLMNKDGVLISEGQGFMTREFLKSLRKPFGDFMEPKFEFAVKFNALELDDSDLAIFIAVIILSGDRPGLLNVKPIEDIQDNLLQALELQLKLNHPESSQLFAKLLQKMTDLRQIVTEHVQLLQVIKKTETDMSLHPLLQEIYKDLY
# [2] = biological target: T2, Peroxisome proliferator-activated receptor delta (Homo sapiens, UniProt Q03181); test: Transactivation of human PPARdelta expressed in African green monkey COS7 cells incubated overnight by dual-glo luciferase reporter gene assay; assay type: cell-based; conditions: cos-7
# T2 sequence (Q03181 whole entry): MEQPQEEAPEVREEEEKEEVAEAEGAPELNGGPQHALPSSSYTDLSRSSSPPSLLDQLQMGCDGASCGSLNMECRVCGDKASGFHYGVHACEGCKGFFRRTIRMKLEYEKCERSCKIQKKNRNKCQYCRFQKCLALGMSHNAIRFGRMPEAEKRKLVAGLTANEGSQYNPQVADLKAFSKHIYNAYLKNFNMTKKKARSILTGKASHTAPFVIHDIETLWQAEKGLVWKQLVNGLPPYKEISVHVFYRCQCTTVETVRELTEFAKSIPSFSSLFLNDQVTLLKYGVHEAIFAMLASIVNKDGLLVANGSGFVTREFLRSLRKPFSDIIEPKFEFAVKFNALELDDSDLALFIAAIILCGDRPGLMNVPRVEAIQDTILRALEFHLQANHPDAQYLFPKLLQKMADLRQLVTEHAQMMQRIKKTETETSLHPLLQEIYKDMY
# [3] = biological target: T3, Peroxisome proliferator-activated receptor alpha (Homo sapiens) (UniProt Q07869); test: Transactivation of human PPARalpha expressed in African green monkey COS7 cells incubated overnight by dual-glo luciferase reporter assay relative to GW7647; assay type: cell-based; conditions: COS-7
# T3 sequence (whole entry): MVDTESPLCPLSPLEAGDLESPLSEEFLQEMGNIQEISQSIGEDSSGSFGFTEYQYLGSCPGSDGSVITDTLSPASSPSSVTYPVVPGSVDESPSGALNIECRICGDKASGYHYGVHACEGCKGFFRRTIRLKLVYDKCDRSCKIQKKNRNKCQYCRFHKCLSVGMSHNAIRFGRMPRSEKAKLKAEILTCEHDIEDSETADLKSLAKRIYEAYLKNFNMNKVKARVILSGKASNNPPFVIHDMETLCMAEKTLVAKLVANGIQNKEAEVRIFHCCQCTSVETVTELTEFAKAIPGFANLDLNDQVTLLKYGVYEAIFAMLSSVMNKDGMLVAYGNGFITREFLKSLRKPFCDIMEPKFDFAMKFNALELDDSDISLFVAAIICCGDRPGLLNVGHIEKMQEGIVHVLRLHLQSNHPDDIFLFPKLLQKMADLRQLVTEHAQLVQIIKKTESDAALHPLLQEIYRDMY
# [4] = biological target: T4, Peroxisome proliferator-activated receptor delta (Homo sapiens) (UniProt Q03181); test: Transactivation of human PPARdelta expressed in African green monkey COS7 cells at 10 uM incubated overnight by dual-glo luciferase reporter assay; assay type: cell-based; conditions: COS-7
# T4 sequence (whole entry): T2 sequence (Q03181 whole entry)
# [5] = biological target: T5, Peroxisome proliferator-activated receptor alpha (Homo sapiens, UniProt Q07869); conditions: cos-7
# T5 sequence (Q07869 whole entry): T3 sequence (whole entry)
# Description: (§1) Transactivation of human PPARalpha expressed in African green monkey COS7 cells incubated overnight by dual-glo luciferase reporter gene assay
# Mus musculus [6] = test: Tmax in RjOrl:Swiss (CD-1) mouse plasma assessed as 2-Ethyl-3-[4-(N-((2-trifluoromethyl)benzyl)benzamide)]-propionic Acid at 30 mg/kg, po administered as single dose; assay type: ADME, organism-based; conditions: in vivo
# Mus musculus [7] = test: AUC (0 to infinity) in RjOrl:Swiss (CD-1) mouse plasma assessed as 2-Ethyl-3-[4-(N-((2-trifluoromethyl)benzyl)benzamide)]-propionic Acid at 30 mg/kg, po administered as single dose; assay type: ADME, organism-based; set-up: dose 30 mg/kg, route oral, time infinity; conditions: in vivo
# Mus musculus [8] = test: Apparent oral clearance in RjOrl:Swiss (CD-1) mouse plasma assessed as 2-Ethyl-3-[4-(N-((2-trifluoromethyl)benzyl)benzamide)]-propionic Acid at 30 mg/kg administered as single dose; assay type: ADME, organism-based; conditions: in vivo
# Mus musculus [9] = test: Apparent volume of distribution during terminal phase in RjOrl:Swiss (CD-1) mouse plasma assessed as 2-Ethyl-3-[4-(N-((2-trifluoromethyl)benzyl)benzamide)]-propionic Acid at 30 mg/kg, po administered as single dose; assay type: ADME, organism-based; conditions: in vivo
# Brain = test: Drug uptake in RjOrl:Swiss (CD-1) mouse brain assessed as 2-Ethyl-3-[4-(N-((2-trifluoromethyl)benzyl)benzamide)]-propionic Acid at 30 mg/kg, po administered as single dose; assay type: ADME, organism-based; conditions: in vivo
# [10] = Solubility of the compound in water by microplate reader analysis; assay type: physicochemical
# Mus musculus [11] = test: Drug metabolism in RjOrl:Swiss (CD-1) mouse plasma assessed as 2-Ethyl-3-[4-(N-((2-trifluoromethyl)benzyl)benzamide)]-propionic Acid formation at 30 mg/kg, po administered as single dose; assay type: ADME, organism-based; conditions: in vivo
# Mus musculus [12] = test: Cmax in RjOrl:Swiss (CD-1) mouse plasma assessed as 2-Ethyl-3-[4-(N-((2-trifluoromethyl)benzyl)benzamide)]-propionic Acid at 30 mg/kg, po administered as single dose; assay type: ADME, organism-based; set-up: dose 30 mg/kg, route oral; conditions: in vivo
# [13] = biological target: T6, Bifunctional epoxide hydrolase 2 (Homo sapiens, UniProt P34913); test: Inhibition of human recombinant sEH using PHOME as substrate preincubated for 30 mins followed by substrate addition measured for 30 mins by fluorescence-based assay
# T6 sequence (P34913 whole entry): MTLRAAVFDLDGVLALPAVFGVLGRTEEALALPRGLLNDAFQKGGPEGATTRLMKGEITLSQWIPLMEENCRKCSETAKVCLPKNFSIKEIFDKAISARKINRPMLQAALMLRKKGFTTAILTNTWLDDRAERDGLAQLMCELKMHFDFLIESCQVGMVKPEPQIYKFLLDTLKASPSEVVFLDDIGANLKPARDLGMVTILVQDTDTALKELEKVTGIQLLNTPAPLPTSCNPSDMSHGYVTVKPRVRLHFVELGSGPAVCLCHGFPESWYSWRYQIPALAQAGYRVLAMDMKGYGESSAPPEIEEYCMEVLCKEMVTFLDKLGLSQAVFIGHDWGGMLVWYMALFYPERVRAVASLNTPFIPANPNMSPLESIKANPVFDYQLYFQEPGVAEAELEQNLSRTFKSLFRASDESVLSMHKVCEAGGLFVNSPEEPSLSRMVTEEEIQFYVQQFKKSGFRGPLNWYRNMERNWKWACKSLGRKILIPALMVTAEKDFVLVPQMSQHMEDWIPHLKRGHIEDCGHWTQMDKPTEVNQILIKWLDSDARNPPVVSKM
# [14] = biological target: T7, Peroxisome proliferator-activated receptor gamma (Homo sapiens, UniProt P37231); conditions: cos-7
# T7 sequence (P37231 whole entry): T1 sequence (whole entry)
# Description: Transactivation of human PPARgamma expressed in African green monkey COS7 cells incubated overnight by dual-glo luciferase reporter gene assay
# [15] = biological target: T5, Peroxisome proliferator-activated receptor alpha
# Description: as §1
structure (smiles),measurement,setting,value
CON(C)C(=O)C1CC1c1ccc(C(=O)NCc2ccccc2C(F)(F)F)cc1 (centres undefined),Activity,[1],30%
same,EC50,[2],Not Active
same,Emax,[3],inactive
same,Emax,[4],inactive
same,EC50,[5],Not Active
CCOC(=O)C(CC)Cc1ccc(C(=O)NCc2ccccc2C(F)(F)F)cc1 (centres undefined),Tmax,Mus musculus [6],30 min
same,AUC,Mus musculus [7],4026 ng·h/mL
same,CL/F,Mus musculus [8],125 mL/min/kg
same,Vz/F,Mus musculus [9],54.3 L/kg
same,Drug uptake,Brain,30 ng/g
same,solubility,[10],2.5 µM
same,EC50,[2],Not Active
same,Emax,[3],inactive
same,Emax,[4],inactive
same,Drug metabolism,Mus musculus [11],metabolite_detected
same,Cmax,Mus musculus [12],2000 nM
same,EC50,[5],Not Active
CCOC(=O)C(CC)Cc1ccc(C(=O)NCc2ccccc2Br)cc1 (centres undefined),solubility,[10],20 µM
same,IC50,[13],4 µM
same,EC50,[2],Not Active
same,Emax,[3],inactive
same,EC50,[5],Not Active
same,EC50,[14],Not Active
CCC(Cc1ccc(C(=O)NCc2ccc(C(F)(F)F)cc2)cc1)C(=O)O (centres undefined),IC50,[13],7.2 µM
same,EC50,[2],Not Active
same,EC50,[15],7 µM
CCOC(=O)C(CC)Cc1ccc(C(=O)NCc2ccc(Oc3ccccc3)cc2)cc1 (centres undefined),EC50,[2],Not Active
same,Emax,[3],110%
same,EC50,[15],4 µM
O=C(O)c1cccc(-c2ccc(C(=O)NCc3ccccc3C(F)(F)F)cc2)c1,Activity,[1],28%
same,EC50,[2],Not Active
same,Emax,[3],inactive
same,Emax,[4],inactive
same,EC50,[5],Not Active
